These are literature values, as cited in the CATMoS acute toxicity set (Mansouri et al. 2021).

As usually defined, the LD50 is the dose at which mortality reaches 50%.

“And” between values parts separate entries of the source, which are not always exact repeats. Identical values can stand only once.

A short description of the data set: rat acute oral toxicity. The conditions noted are these: in vivo.
For the molecule `Oc1ccc(-c2ccccc2)cc1CN1CCOCC1`, the LD50 was 25 mg/kg.

With `Cc1cccc(C)c1N(COC(C)C)C(=O)CCl`, the LD50 is 975 mg/kg. Turning to `CCOC(=O)C(C(C)=O)P(=O)(OCC)OCC` (stereo not drawn), the LD50 was 176 mg/kg. In the case of `NS(=O)(=O)c1cc2c(cc1Cl)CN(C1CCCCC1)C2=O`, the LD50 was 6000 mg/kg.

Turning to `CC(C)CNC(=O)N1CCNC1=O`, the LD50 is 3500 mg/kg. For `CC(C)c1ccc(C=O)cc1`, the LD50 is 1390 mg/kg. Take `C/C(=N/NC(=O)c1ccncc1)c1ccco1`: the LD50 is 110 mg/kg.

As for `CCCCCCOCCOC(=O)CCC(=O)OCCOCCCCCC`, the LD50 was 4280 mg/kg. As to `CCCCCCCCCCCCCCCCCCP(=O)(OC)OC`, the LD50 is 15400 mg/kg. With `Nc1cc(-c2ccncc2)c[nH]c1=O`, the LD50 is 102 mg/kg.

Regarding `CC(Cl)(Cl)Cl`, the LD50 is 9600 mg/kg. In the case of `NC(Cc1ccc(N(CCCl)CCCl)cc1)C(=O)O` (stereo not drawn), the LD50 is 52 mg/kg and 105 mg/kg. Take `CCC(=O)OC(=O)CC`: the LD50 was 2360 mg/kg.

As to `COc1cc2nc(N3CCN(C(=O)C4CCCO4)CC3)nc(N)c2cc1OC` (stereo not drawn), the LD50 was 5500 mg/kg. `COc1ccc(N)c(S(=O)(=O)O)c1`: the LD50 is 10000 mg/kg. For `OCC1(CO)CC=CCC1`, the LD50 is 1750 mg/kg.

Turning to `CC(C)=C1CC[C@@H](C)CC1=O`, the LD50 was 470 mg/kg. Take `CCOP(=S)(OCC)Oc1ccc2c3c(c(=O)oc2c1)CCCC3`: the LD50 is 67 mg/kg. As for `O=C(OCC(Br)(Br)Br)c1ccco1`, the LD50 is 1500 mg/kg. As for `CC(C)c1cccc(OC(=O)N(C)N=O)c1`, the LD50 was 400 mg/kg.

On to `CNC(C)C1CCC(N)C(OC2C(N)CC(N)C(OC3OCC(C)(O)C(NC)C3O)C2O)O1` (stereo not drawn), for which the LD50 was 6600 mg/kg.

`CC(C)=CC1C(C(=O)OCc2cccc(Oc3ccccc3)c2)C1(C)C` (stereo not drawn): the LD50 is 500 mg/kg. For `O=[N+]([O-])c1cccc2nc3ccccc3c(NCCN(CCO)CCO)c12`, the LD50 was 176 mg/kg.

On to `OC[C@@H](O)[C@@H](O[C@@H]1O[C@H](CO)[C@H](O)[C@H](O)[C@H]1O)[C@H](O)[C@@H](O)CO`, for which the LD50 was 30000 mg/kg and 27500 mg/kg. For the molecule `COc1nccnc1NS(=O)(=O)c1ccc(N)cc1`, the LD50 was 2740 mg/kg. For the molecule `O=C(O)c1cc2ccccc2oc1=O`, the LD50 was 200 mg/kg. `CCN1CC2CN(C)CC(C1)C2OC(=O)c1ccc(Cl)cc1` (stereo not drawn): the LD50 was 200 mg/kg. For `CCOP(=O)(OCC)C(SCC)(P(=O)(OCC)OCC)P(=O)(OCC)OCC`, the LD50 was 7.25 mg/kg. On to `Clc1nc(Cl)c(Cl)[nH]1`, for which the LD50 is 11 mg/kg. On to `CCOC(C1=NCC(C)(CC)CN1)c1ccccc1` (stereo not drawn), for which the LD50 is 220 mg/kg. As to `C=CC(COC)c1ccccc1OC(=O)NC` (stereo not drawn), the LD50 was 100 mg/kg. Regarding `CN(C)N(C)N=O`, the LD50 was 95 mg/kg. Regarding `OC(Nc1nccs1)C(Cl)(Cl)Cl` (stereo not drawn), the LD50 was 2500 mg/kg.

Consider `CC(C)[N+](C)(CCOC(=O)C1c2ccccc2Oc2ccccc21)C(C)C`, for which the LD50 is 370 mg/kg. As for `CCSC(=O)Oc1c(C(C)CC)cc([N+](=O)[O-])cc1[N+](=O)[O-]` (stereo not drawn), the LD50 is 147 mg/kg. For the molecule `O=C1C=CC[C@@H]2[C@H]3CCCN4CCC[C@@H](CN12)[C@@H]34`, the LD50 is 196 mg/kg.

In the case of `CC=Cc1ccc(OC(C)=O)c(OC)c1`, the LD50 is 3450 mg/kg.

Regarding `CCCCCCCCCCCCCCN(CC)C(C)(CO)CO`, the LD50 was 1500 mg/kg. With `O=S(=O)(O)C(F)(F)C(F)(F)C(F)(F)C(F)(F)C(F)(F)C(F)(F)C(F)(F)C(F)(F)F`, the LD50 was 251 mg/kg and 154 mg/kg. On to `CCOC(=O)Nc1ccc(NC(Cc2ccccc2)c2ccccc2)nc1N` (stereo not drawn), for which the LD50 is 163 mg/kg. As for `NCCCCC(CN)CCCN` (stereo not drawn), the LD50 was 760 mg/kg. Turning to `COc1ccc(N)c([N+](=O)[O-])c1`, the LD50 is 14100 mg/kg. For `O=S(=O)(O)c1ccccc1O`, the LD50 was 1900 mg/kg. `Cc1cc(=O)[nH]c(=S)[nH]1`: the LD50 is 1500 mg/kg. Turning to `CCOP(=O)(OCC)SC(C)(C)C`, the LD50 is 127 mg/kg. Regarding `C=CCOC(=O)CCCCCCC`, the LD50 is 570 mg/kg. Turning to `Nc1ccc2c(c1)Cc1cc(N)ccc1-2`, the LD50 is 1070 mg/kg.

Turning to `CN1C(=O)C2C=CC1c1ccccc12` (stereo not drawn), the LD50 was 806 mg/kg.
